According to US20150290160A1, “Spermidine/Spermine N1-Acetyltransferase Substrates As Anti-Cancer Drug Compounds” (BIOMARK TECHNOLOGIES INC., priority 2012, published 2015):
pIC50: −log10 of the molar value. Read-outs that look alike come from different tables or passages of the source.

What was measured:
[1] = system: U2-OS osteosarcoma cell line (negative control, SSAT non-expressing); test: MTT cytotoxicity assay, U2-OS; type: cell-based, human; details: for IC50 values (in words): does not express SSAT
Method: (§1) Each human cancer cell line was incubated with each of the four monoamine test drugs at a range of testing concentrations. Cytotoxicity expressed as half maximal inhibitory concentration or IC50 was determined based on a (dimethyl-2-thiazolyl)-2,5-diphenyl-2H-tetrazolium bromide or MTT assay. In parallel, the expression levels of SSAT in these cell lines were measured using a RT-qPCR assay.
Cells of the ten cell lines were harvested from their established adherent cultures with trypsin EDTA, pelleted by centrifugation, and resuspended in the appropriate medium to yield a suspension of cells for each cell line.
Each of the monoamine test drugs (amantadine, rimantadine, dopamine and L-DOPA) and the positive control (spermidine) was accurately weighed, dissolved and further diluted with sterile water into a series of solutions at 100× of their target incubation concentrations. The target incubation concentrations for amantadine, rimantadine, and dopamine were 0.03, 0.1, 0.3, 1, 3, 10, 30, 100, 300 and 1000 μM. The target incubation concentrations for L-DOPA and the positive control, spermidine, were 0.1, 0.3, 1, 3, 10, 30, 100, 300 and 1000 μM.
Incubation was performed in triplicate at each drug concentration for each cell line tested. […]
(§2) After three days of incubation with substrates, an aliquot of 5 mg/mL MTT was added to each well and then incubated for 1 to 3 hours. […] An aliquot from each well was measured for absorbance at 550 nm or 555 nm on a 96-well flat bottom plate with a microplate reader and DMSO for background absorbance correction.
(§3) Cytotoxicity was determined based on treating each cell line with each of the test drugs over a range of concentrations. Following a three day incubation period cytotoxicity was measured by an MTT assay. IC50 values were deduced based on plots of cytotoxicity level expressed as percentage inhibition over the testing concentrations as shown in FIGS. 5 to 14. In parallel to each drug treatment, each cell line was also treated with spermidine as a positive control and the IC50 value for spermidine was determined for comparison.

[2] = system: breast cancer cell line BT-549; test: cells; details: Homo sapiens, BT-549, 72 h, read-out: IC50 (cytotoxicity)
Method: as §1
(§4) Cells of the ten cell lines were harvested from their established adherent cultures with trypsin EDTA, pelleted by centrifugation, and resuspended in the appropriate medium to yield a suspension of cells for each cell line. […]
as §2
as §3, with “In parallel to each drug treatment, each cell line was also treated with spermidine as a positive control and the IC50 value for spermidine was determined for comparison.” left out

NCI-H23 (lung cancer) = test: MTT cytotoxicity assay, NCI-H23; type: cell-based; details: Homo sapiens, 72 h, NCI-H23, three day incubation
Method: as §1, §4, §2
as §3, with “In parallel to each drug treatment, each cell line was also treated with spermidine as a positive control and the IC50 value for spermidine was determined for comparison.” left out

LNCaP = test: MTT cytotoxicity assay, LNCaP
Method: as §1, §4, §2
as §3, with “In parallel to each drug treatment, each cell line was also treated with spermidine as a positive control and the IC50 value for spermidine was determined for comparison.” left out

T-47D = test: MTT cytotoxicity assay, T-47D
Method: as §1, §4, §2
as §3, with “In parallel to each drug treatment, each cell line was also treated with spermidine as a positive control and the IC50 value for spermidine was determined for comparison.” left out

[3] = system: human cancer cell lines (A549, H322, NCI-H23, MCF-7, T-47D, BT-549, LNCaP, PC-3, Du-145, U2-OS); test: MTT cytotoxicity assay, across all cell lines evaluated; type: cell-based; details: 72 h, across all the cell lines evaluated, three day incubation, read-out: IC50 (cytotoxicity), range across cell lines
Description: Three cell lines from each of lung, breast and prostate cancers have been selected based on literature SSAT expression data and used for potential cytotoxicity screening in the MTT assay. The SSAT non-expressing human osteosarcoma cell line U2-OS was used as the negative control cell line.

[4] = system: SSAT non-expressing cell lines (U2-OS and HeLa); test: Percent confluency during incubation with spermidine, SSAT non-expressing cell lines; type: cell-based, human; details: spermidine from 22 μM to 550 μM, compared among U2-OS, Malme-3M, PC-3, HEK293
[5] = system: SSAT over-expressing cell lines (Malme-M3 and PC-3); test: Percent confluency during incubation with spermidine, SSAT over-expressing cell lines; type: cell-based, human; details: spermidine from 22 μM to 550 μM; compared among U2-OS, HeLa, Malme-3M, PC-3, HEK293

Compound: N[C@@H](Cc1ccc(O)c(O)c1)C(=O)O [L-DOPA]
- IC50 values (in words) [1]: low IC50 values

Compound: NC12CC3CC(CC(C3)C1)C2 [amantadine, Amantadine]
- pIC50 [2]: 2.94
- pIC50 (NCI-H23 (lung cancer)): 2.79
- cytotoxicity (in words) (LNCaP; LNCaP, over-expresses SSAT (>5-fold change)): high cytotoxicity
- cytotoxicity (in words) (T-47D; T-47D, over-expresses SSAT (>2 fold change)): high cytotoxicity

Compound: NCCc1ccc(O)c(O)c1 [dopamine, Dopamine]
- pIC50 ([1]; Homo sapiens, U2OS, 72 h, three day incubation, MTT): 4.47
- IC50 values (in words) [1]: low IC50 values
- pIC50 [2]: 4.28

Compound: CC(N)C12CC3CC(CC(C3)C1)C2 (stereo not shown) [rimantadine, Rimantadine]
- cytotoxicity (in words) (LNCaP): high cytotoxicity
- cytotoxicity (in words) (T-47D): high cytotoxicity

Compound: NCCCCNCCCN [spermidine, Spermidine]
- pIC50 [3]: 4.49 to 5.43
- relative cell viability, expressed as percent confluency [4]: highest
- relative cell viability, expressed as percent confluency [5]: lowest
